Read-outs that look alike come from different tables or passages of the source.
Tests used:
[1] = target: T1, α-glucosidase I (Rattus norvegicus, UniProt O88941); test: In vitro inhibition of purified α-glucosidase I, 2-AA-labeled FOS substrates, HPLC; format: biochemical
T1 construct: Purified α-glucosidase I and II were purified from rat liver by known methods; from tissue; host or cells: rat liver
T1 sequence (O88941 1-834): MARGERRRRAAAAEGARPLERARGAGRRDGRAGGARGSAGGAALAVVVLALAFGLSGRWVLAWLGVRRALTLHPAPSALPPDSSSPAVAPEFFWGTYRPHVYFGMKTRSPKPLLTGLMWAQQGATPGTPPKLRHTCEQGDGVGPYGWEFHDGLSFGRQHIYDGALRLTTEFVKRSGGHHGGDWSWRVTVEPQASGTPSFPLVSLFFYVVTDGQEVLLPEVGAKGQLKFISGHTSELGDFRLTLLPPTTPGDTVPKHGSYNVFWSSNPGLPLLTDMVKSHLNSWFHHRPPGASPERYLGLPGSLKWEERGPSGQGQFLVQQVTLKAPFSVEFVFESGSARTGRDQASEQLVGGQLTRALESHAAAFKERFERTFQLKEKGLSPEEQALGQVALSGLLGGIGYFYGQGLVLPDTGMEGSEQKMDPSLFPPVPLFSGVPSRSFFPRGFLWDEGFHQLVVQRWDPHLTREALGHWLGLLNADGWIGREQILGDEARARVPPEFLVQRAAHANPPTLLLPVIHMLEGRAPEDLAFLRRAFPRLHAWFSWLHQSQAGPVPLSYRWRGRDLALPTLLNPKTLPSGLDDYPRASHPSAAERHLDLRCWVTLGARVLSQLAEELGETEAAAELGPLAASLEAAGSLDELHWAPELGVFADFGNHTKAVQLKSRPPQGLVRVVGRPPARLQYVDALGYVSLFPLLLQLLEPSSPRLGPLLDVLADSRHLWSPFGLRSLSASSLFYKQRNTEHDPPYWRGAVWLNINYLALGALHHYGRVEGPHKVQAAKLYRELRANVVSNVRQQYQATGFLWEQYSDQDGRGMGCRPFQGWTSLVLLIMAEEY
Description: (§1) All chromatography was performed at 30° C. The first solvent, solvent A, was acetonitrile and the second solvent, solvent B, was Milli-Q water. […] Samples (<50 μl) were injected in Milli-Q water/acetonitrile (3/7, v/v). All chromatography was controlled, including data collection and processing, using Waters Empower software. Glucose units were determined, following comparison with a 2-AA-labeled glucose oligomer ladder (derived from a partial hydrolysate of dextran) external standard using Peak Time software (developed in-house).
Purified α-glucosidase I and II were purified from rat liver by known methods. […] 2-AA-labeled FOS were isolated and purified as substrates for either α-glucosidase I or II. Fluorescently-labeled substrates Glc1Man5GlcNAc1 (G1M5N), Glc2Man5GlcNAc1 (G2M5N), Glc3Man5GlcNAc1 (G3M5N) and Glc3Man9GlcNAc, (G3M9N2) were added to separate 1.5 ml centrifuge tubes with varying concentrations of imino sugar and dried under vacuum. […] Similarly, α-glucosidase II was incubated for 2 hours with G2M5N and 20 minutes with G1M5N. […] The reactions were stopped by the addition of 30 μl acetonitrile.

[2] = target: T2, α-glucosidase II (Rattus norvegicus, UniProt A0A8I6GFL3); test: In vitro inhibition of purified α-glucosidase II, (a) and (b) activities, 2-AA-labeled FOS substrates, HPLC; format: biochemical
T2 construct: Purified α-glucosidase I and II were purified from rat liver by known methods; from tissue; host or cells: rat liver
T2 sequence (A0A8I6ADW9 1-525 partner): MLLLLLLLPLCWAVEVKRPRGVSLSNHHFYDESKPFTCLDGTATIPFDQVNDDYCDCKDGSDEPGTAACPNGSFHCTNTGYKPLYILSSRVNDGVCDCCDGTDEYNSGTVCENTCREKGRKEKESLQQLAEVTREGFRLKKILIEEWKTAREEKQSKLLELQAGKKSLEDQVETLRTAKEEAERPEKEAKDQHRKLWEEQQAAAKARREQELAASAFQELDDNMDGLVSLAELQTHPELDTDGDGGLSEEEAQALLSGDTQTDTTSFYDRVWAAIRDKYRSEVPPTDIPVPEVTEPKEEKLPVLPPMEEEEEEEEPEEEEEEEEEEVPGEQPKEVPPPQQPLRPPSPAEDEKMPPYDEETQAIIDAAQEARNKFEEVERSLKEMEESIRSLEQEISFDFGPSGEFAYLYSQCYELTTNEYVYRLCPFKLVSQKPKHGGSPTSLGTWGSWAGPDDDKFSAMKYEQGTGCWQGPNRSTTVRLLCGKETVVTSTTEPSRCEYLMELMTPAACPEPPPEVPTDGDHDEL
Description: as §1
Purified α-glucosidase I and II were purified from rat liver by known methods. […] 2-AA-labeled FOS were isolated and purified as substrates for either α-glucosidase I or II. […] […] […] […] The reactions were stopped by the addition of 30 μl acetonitrile.

[3] = nonamannose substrate Glc3Man9GlcNAc1, read-out: α-Glucosidase I Glc3Man9GlcNAc1 IC50
[4] = pentamannose substrate Glc3Man5GlcNAc1, read-out: α-Glucosidase I Glc3Man5GlcNAc1 IC50
[5] = pentamannose substrate Glc1Man5GlcNAc1, read-out: α-Glucosidase II (b) Glc1Man5GlcNAc1 IC50
[6] = pentamannose substrate Glc2Man5GlcNAc1, read-out: α-Glucosidase II (a) Glc2Man5GlcNAc1 IC50

| IC50 ([1]; heptamannose substrate Glc3Man7GlcNAc1, read-out: α-Glucosidase I Glc3Man7GlcNAc1 IC50) [nM] | IC50 ([2]; heptamannose substrate Glc1Man7GlcNAc1, read-out: α-Glucosidase II (b) Glc1Man7GlcNAc1 IC50) [nM] | IC50 ([2]; heptamannose substrate Glc2Man7GlcNAc1, read-out: α-Glucosidase II (a) Glc2Man7GlcNAc1 IC50) [nM] | Structure (SMILES) | IC50 [1, 3] [nM] | IC50 [1, 4] [nM] | IC50 [2, 5] [nM] | IC50 [2, 6] [nM] |
| --- | --- | --- | --- | --- | --- | --- | --- |
| – | – | – | CCCCN1C[C@H](O)[C@@H](O)[C@H](O)[C@H]1CO [NB-DNJ, N-butyl-DNJ, reference compound] | 590 ± 80 | 680 ± 150 | 53000 ± 16600 | 10800 ± 1100 |
| 45 ± 3 | 10200 ± 20 | 18100 ± 1600 | O=[N+]([O-])c1ccc(NCCCCCCN2C[C@H](O)[C@@H](O)[C@H](O)[C@H]2CO)c([N+](=O)[O-])c1 [NDP-DNJ, N—(N′-{2,4-dinitrophenyl)-6-aminohexyl)-deoxynojirimycin] | 54 ± 20 | 108 ± 20 | 1900 ± 400 | 6900 ± 3400 |

Source: patent US8975280B2, “Deoxynojirimycin and D-arabinitol analogs and methods of using” (The Chancellor, Masters and Scholars of The University of …, priority 2006, dated 2015)
